Results from patent publication US6960614B2, “Oxygenated esters of 4-lodo phenylamino benzhydroxamic acids” (Warner-Lambert Company, priority 2000, dated 2005).
Structures can show the parent of a compound that is named as a salt.

Tested on: MEK
Test: Cellular Assay for Measuring MEK Inhibition (inhibition of ERK phosphorylation in C26 cells, Western blot)
Type: cell-based, murine
Conditions: for IC50: inhibition of ERK phosphorylation in murine colon 26 (C26) carcinoma cells, determined graphically from dose response curve; for % Inhibition @ 0.1 μM / % Inhibition @ 1 μM: ERK phosphorylation in C26 cells
Experimental: The evaluation of the compounds as MEK inhibitors was performed in an assay that measures their ability to inhibit phosphorylation of MAP kinase […]) in murine colon 26 (C26) carcinoma cells. Since ERK1 and ERK2 represent the only known substrates for MEK, measurement of inhibition of ERK phosphorylation in cells provides direct readout of cellular MEK inhibition by the compounds of the invention. Briefly, the assay involves treating exponentially growing C26 cells with varying concentrations of the test compound (or vehicle control) for […] at 37° C. Cells are then rinsed free of compound/vehicle and lysed in a solution containing 70 mM NaCl, 50 mM glycerol phosphate, 10 mM HEPES, pH 7.4, 1% Triton X-100, 1 mM Na3VO4, 100 μM PMSF, 10 μM leupeptin and 10 μM pepstatin. Supernatants are then subjected to gel electrophoresis and Western blotting using a primary antibody recognizing dually phosphorylated ERK1 and ERK2. To evaluate total MAPK levels, blots were subsequently ‘stripped’ and re-probed with a 1:1 mixture of polyclonal antibodies recognizing unphosphorylated ERK1 and ERK2.

IC50	Structure (SMILES)	% Inhibition @ 0.1 μM	% Inhibition @ 1 μM
2 nM	O=C(NOCCO)c1ccc(F)cc1Nc1ccc(I)cc1Cl [Example 4, 2-(2-Chloro-4-iodo-phenylamino)-4-fluoro-N-(2-hydroxy-ethoxy)-benzamide]		
3 nM	Cc1cc(I)ccc1Nc1cc(F)ccc1C(=O)NOCCO [Example 5, 4-Fluoro-N-(2-hydroxy-ethoxy)-2-(4-iodo-2-methyl-phenylamino)-benzamide]		
45 nM	O=C(NOCCO)c1cc(F)c(F)cc1Nc1ccc(I)cc1Cl [Example 17, 2-(2-Chloro-4-iodo-phenylamino)-4,5-difluoro-N-(2-hydroxy-ethoxy)-benzamide]		
4.4 nM	O=C(NOCCCO)c1ccc(F)c(F)c1Nc1ccc(I)cc1F [Example 32, 3,4-Difluoro-2-(2-fluoro-4-iodo-phenylamino)-N-(3-hydroxy-propoxy)-benzamide]		
1.4 nM	O=C(NOCC(O)CO)c1cc(Br)c(F)c(F)c1Nc1ccc(I)cc1F (stereo not shown) [Example 40, 5-Bromo-N-(2,3-dihydroxy-propoxy)-3,4-difluoro-2-(2-fluoro-4-iodo-phenylamino)-benzamide]		
1.2 nM	O=C(NOC[C@H](O)CO)c1cc(Cl)c(F)c(F)c1Nc1ccc(I)cc1F [Example 53]		
240 nM	O=C(NOCCNc1ccccc1)c1ccc(F)c(F)c1Nc1ccc(I)cc1Cl [Example 77, 2-(2-Chloro-4-iodo-phenylamino)-3,4-difluoro-N-(2-phenylamino-ethoxy)-benzamide]		
20 nM	CNCCONC(=O)c1ccc(F)c(F)c1Nc1ccc(I)cc1F [Example 79, 3,4-Difluoro-2-(2-fluoro-4-iodo-phenylamino)-N-(2-methylamino-ethoxy)-benzamide, hydrochloride salt]		
490 nM	Cc1cc(I)ccc1Nc1c(C(=O)NOCCNCC(F)(F)F)ccc(F)c1F [Example 80, 3,4-Difluoro-2-(4-iodo-2-methyl-phenylamino)-N-[2-(2,2,2-trifluoro-ethylamino)-ethoxy]-benzamide; hydrochloride]		
134 nM	CN(OCCO)C(=O)c1ccc(F)cc1Nc1ccc(I)cc1Cl [Example 81, 2-(2-Chloro-4-iodo-phenylamino)-4-fluoro-N-(2-hydroxy-ethoxy)-N-methyl-benzamide]		
> 1000 nM	CC(=O)OCCONC(=O)c1cc(F)c(F)c(F)c1Nc1ccc(I)cc1C [Example 82, Acetic acid 2-({1-[3,4,5-trifluoro-2-(4-iodo-2-methyl-phenylamino)-phenyl]-methanoyl}-aminooxy)-ethyl ester]		
19 nM	O=C(NOCC(O)CO)c1ccc(F)c(F)c1Nc1ccc(I)cc1Cl (stereo not shown) [Example 86, 2-(2-Chloro-4-iodo-phenylamino)-N-(2,3-dihydroxy-propoxy)-3,4-difluoro-benzamide]		
25 nM	O=C(NOCC(O)CO)c1cc(F)c(F)c(F)c1Nc1ccc(I)cc1Cl (stereo not shown) [Example 87, 2-(2-Chloro-4-iodo-phenylamino)-N-(2,3-dihydroxy-propoxy)-3,4,5-trifluoro-benzamide]		
110 nM	O=C(NOCC(O)CO)c1cc(Br)c(F)c(F)c1Nc1ccc(I)cc1Cl (stereo not shown) [Example 88, 5-Bromo-2-(2-chloro-4-iodo-phenylamino)-N-(2,3-dihydroxy-propoxy)-3,4-difluoro-benzamide]		
12 nM	Cc1cc(I)ccc1Nc1c(C(=O)NOCC(O)CO)ccc(F)c1F (stereo not shown) [Example 89, N-(2,3-Dihydroxy-propoxy)-3,4-difluoro-2-(4-iodo-2-methyl-phenylamino)-benzamide]		
40 nM	Cc1cc(I)ccc1Nc1c(C(=O)NOCC(O)CO)cc(F)c(F)c1F (stereo not shown) [Example 90, N-(2,3-Dihydroxy-propoxy)-3,4,5-trifluoro-2-(4-iodo-2-methyl-phenylamino)-benzamide]		
	Cc1cc(I)ccc1Nc1c(C(=O)NOCC(O)CO)cc(Br)c(F)c1F (stereo not shown) [Example 91, 5-Bromo-N-(2,3-dihydroxy-propoxy)-3,4-difluoro-2-(4-iodo-2-methyl-phenylamino)-benzamide]	89.4%	98.9%

IC50	Structure (SMILES)	% Inhibition @ 0.1 μM	% Inhibition @ 1 μM
	O=C(NOCCC(O)CO)c1ccc(F)c(F)c1Nc1ccc(I)cc1Cl (stereo not shown) [Example 92, 2-(2-Chloro-4-iodo-phenylamino)-N-(3,4-dihydroxy-butoxy)-3,4-difluoro-benzamide]	51.8%	92.4%
	O=C(NOCCC(O)CO)c1cc(F)c(F)c(F)c1Nc1ccc(I)cc1Cl (stereo not shown) [Example 93, 2-(2-Chloro-4-iodo-phenylamino)-N-(3,4-dihydroxy-butoxy)-3,4,5-trifluoro-benzamide]	4%	79.1%
	Cc1cc(I)ccc1Nc1c(C(=O)NOCCC(O)CO)cc(F)c(F)c1F (stereo not shown) [Example 96, N-(3,4-Dihydroxy-butoxy)-3,4,5-trifluoro-2-(4-iodo-2-methyl-phenylamino)-benzamide]	35%	87.1%
	Cc1cc(I)ccc1Nc1c(C(=O)NOCCC(O)CO)cc(Br)c(F)c1F (stereo not shown) [Example 97, 5-Bromo-N-(3,4-dihydroxy-butoxy)-3,4-difluoro-2-(4-iodo-2-methyl-phenylamino)-benzamide]	30.1%	91.9%
11 nM	O=C(NOCCCO)c1cc(Br)c(F)c(F)c1Nc1ccc(I)cc1Cl [Example 98, 5-Bromo-2-(2-chloro-4-iodo-phenylamino)-3,4-difluoro-N-(3-hydroxy-propoxy)-benzamide]		
18 nM	O=C(NOCCCO)c1ccc(F)c(F)c1Nc1ccc(I)cc1Cl [Example 99, 2-(2-Chloro-4-iodo-phenylamino)-3,4-difluoro-N-(3-hydroxy-propoxy)-benzamide]		
58 nM	Cc1cc(I)ccc1Nc1c(C(=O)NOCCCO)cc(F)c(F)c1F [Example 100, 3,4,5-Trifluoro-N-(3-hydroxy-propoxy)-2-(4-iodo-2-methyl-phenylamino)-benzamide]		
225 nM	O=C(NOCCCO)c1cc(F)c(F)c(F)c1Nc1ccc(I)cc1Cl [Example 101, 2-(2-Chloro-4-iodo-phenylamino)-3,4,5-trifluoro-N-(3-hydroxy-propoxy)-benzamide]		
275 nM	Cc1cc(I)ccc1Nc1c(C(=O)NOCCCO)cc(Br)c(F)c1F [Example 102, 5-Bromo-3,4-difluoro-N-(3-hydroxy-propoxy)-2-(4-iodo-2-methyl-phenylamino)-benzamide]		
487 nM	Cc1cc(I)ccc1Nc1c(C(=O)NOCCCO)ccc(F)c1F [Example 103, 3,4-Difluoro-N-(3-hydroxy-propoxy)-2-(4-iodo-2-methyl-phenylamino)-benzamide]		
	CCC(O)CONC(=O)c1cc(F)c(F)c(F)c1Nc1ccc(I)cc1Cl (stereo not shown) [Example 105, 2-(2-Chloro-4-iodo-phenylamino)-3,4,5-trifluoro-N-(2-hydroxy-butoxy)-benzamide]	3.3%	71.3%
	CCC(O)CONC(=O)c1cc(F)c(F)c(F)c1Nc1ccc(I)cc1C (stereo not shown) [Example 106, 3,4,5-Trifluoro-N-(2-hydroxy-butoxy)-2-(4-iodo-2-methyl-phenylamino)-benzamide]	13.2%	81.6%
	CCC(O)CONC(=O)c1cc(Br)c(F)c(F)c1Nc1ccc(I)cc1C (stereo not shown) [Example 108, 5-Bromo-3,4-difluoro-N-(2-hydroxy-butoxy)-2-(4-iodo-2-methyl-phenylamino)-benzamide]	74%	94.6%
	CCC(O)CONC(=O)c1cc(Cl)c(F)c(F)c1Nc1ccc(I)cc1C (stereo not shown) [Example 111, 5-Chloro-3,4-difluoro-N-(2-hydroxy-butoxy)-2-(4-iodo-2-methyl-phenylamino)-benzamide]	78%	93.4%
	CCC(O)CONC(=O)c1ccc(F)c(F)c1Nc1ccc(I)cc1F (stereo not shown) [Example 112, 3,4-Difluoro-2-(2-fluoro-4-iodo-phenylamino)-N-(2-hydroxy-butoxy)-benzamide]	95.2%	95.5%
	CCC(O)CONC(=O)c1cc(Br)c(F)c(F)c1Nc1ccc(I)cc1F (stereo not shown) [Example 113, 5-Bromo-3,4-difluoro-2-(2-fluoro-4-iodo-phenylamino)-N-(2-hydroxy-butoxy)-benzamide]	89.9%	94.6%

Structure (SMILES)	IC50	% Inhibition @ 0.1 μM	% Inhibition @ 1 μM
O=C(NOCCC(O)CO)c1cc(Br)c(F)c(F)c1Nc1ccc(I)cc1Cl (stereo not shown) [Example 94, 5-Bromo-2-(2-chloro-4-iodo-phenylamino)-N-(3,4-dihydroxy-butoxy)-3,4-difluoro-benzamide]	280 nM		
Cc1cc(I)ccc1Nc1c(C(=O)NOCCC(O)CO)ccc(F)c1F (stereo not shown) [Example 95, N-(3,4-Dihydroxy-butoxy)-3,4-difluoro-2-(4-iodo-2-methyl-phenylamino)-benzamide]	190 nM		
CCC(O)CONC(=O)c1ccc(F)c(F)c1Nc1ccc(I)cc1Cl (stereo not shown) [Example 104, 2-(2-Chloro-4-iodo-phenylamino)-3,4-difluoro-N-(2-hydroxy-butoxy)-benzamide]	24 nM		
CCC(O)CONC(=O)c1cc(Br)c(F)c(F)c1Nc1ccc(I)cc1Cl (stereo not shown) [Example 107, 5-Bromo-2-(2-chloro-4-iodo-phenylamino)-3,4-difluoro-N-(2-hydroxy-butoxy)-benzamide]	76 nM		
CCC(O)CONC(=O)c1ccc(F)c(F)c1Nc1ccc(I)cc1C (stereo not shown) [Example 109, 3,4-Difluoro-N-(2-hydroxy-butoxy)-2-(4-iodo-2-methyl-phenylamino)-benzamide]	38 nM		
